In patent US20040097408A1, “Compounds regulating cell proliferation and differentiation” (priority 2001, published 2004):
Values joined by “and” are separate entries in the source; they are usually repeats but may differ in a detail not shown here. Identical values can stand only once.

What was measured:
[1] = test system: EpH4-A6 cells; assay: anti-BrdU cytoblot assay (BrdU incorporation); type: cell-based, mouse
Procedure: In order to look for selective inhibitors of cell proliferation dependent on Neu, a chemical library was screened using a cytoblot assay. The ability of small molecules to inhibit cell proliferation at a final concentration of […] determined by the relative incorporation of BrdU into DNA in EpH4-A6 Neu-overexpressing and EpH4-EV control cells.
A modified version of a protocol previously described was used for the cytoblot assay (Stockwell et al. (1999) Chem Biol 6(2), 71-83). Briefly, for this cytoblot assay, 2,000 control (EpH4-EV) and Neu overexpressing (EpH4-A6) cells were seeded in 40 μL of growing medium in duplicate in each well of a white […] plate (Costar). 16,000 compounds from a chemical library (Chembridge) were transferred to each well to a final concentration of 10-15 μM. Plates were incubated at 37° C. with 5% CO2 for 36 hours. BrdU was then added to a final concentration of 20 μM and the cells were incubated at 37° C. with 5% CO2 for an additional 3 hours. Cells were then washed with PBS and fixed with 75% ethanol/25%TBS at 4° C. for 1 hour. DNA denaturation was achieved by incubation with 2M HCl/0.5% Tween-20 for 20 min, followed by neutralization with 2M NaOH in Hank's Balanced Salt Solution (HBSS). Cells were subsequently washed with HBSS, blocked with PBS/0.3% Tween-20/1% BSA (PSTB), and incubated with 0.5 μg/mL of mouse anti-BrdU antibody (PharMingen) and 1:5,000 dilution of anti-mouse IgG coupled to HRP in PBSTB for 1 hour at room temperature. Finally the cells were washed with PBS and 20 μL of 1:1 mix of the enhanced chemiluminescence reagent (Pierce) was then added to each well of a plate. In every case addition of reagents was done using a mutli-drop 384 liquid dispenser (Labsystems) and the washes using a plate washer (Bio-Tek Instruments). Chemiluminescent signal from each plate was detected by autoradiograph and multilabel counter Victor^2 (Wallac) in order to quantitate results. A control cytoblot using inhibitory anti-Neu monoclonal antibodies was performed following the same procedure with the exception that anti-Neu antibody was added to the medium at a final concentration of 20 μg/mL.
The potency of these 55 small molecules was then evaluated at lower concentrations, i.e., at 10 μM and 1 μM using the cytoblot assay described above. […] These six compounds are referred to as E20 (ID 141525); F12 (ID 120590); F16 (ID 274873); H10 (ID 120670); J6 (ID 120856); N12 (ID 215015), and their structure is shown in FIGS. 2 A-F, respectively. […] These two compounds are referred to as L4 (ID 121113); B15(ID217496) […]. FIGS. 2 A-H also show proton NMR spectra of each of the molecules that confirmed their identity. […]

[2] = test system: mice; assay: tolerability of intraperitoneal F16 in mice
[3] = test system: NF980; assay: cell cycle phases by BrdU incorporation / FACS; type: cell-based, mouse; conditions: F16 3 μM, 30 hr
Procedure: (§1) The percentage of cells in the different phases of the cell cycle was assessed by measuring BrdU incorporation into the DNA of the cells. BrdU incorporation into DNA of untreated or F16 treated (3 μM/30-36 hr) EpH-EV and EpH-A6 cells was assessed by FACS as follows. After F16 or mock treatment, the cells were pulsed with BrdU (20 μM) for 1 hour and then fixed in 70% ethanol at −20° C. overnight. Next morning cells were washed twice with 1×PBS and the DNA was denatured by incubation of the cells in 2N HCl/0.5% Triton X-100. The cells were then washed twice in 0.1M Na2B2O7, and once in PBS. The cells were resuspended in PBS, incubated with 20 μL of anti-BrdU/FITC(Becton Dickinson) for 1 hour and subsequently washed with 1×PBS and resuspended in PBS. RNA was digested with RNaseA (1 μL of 10 mg/mL stock) at 37° C. for 30 minutes. Finally, the cells were diluted with 1 mL of 5 μg/mL propidium iodide/PBS and incubated on ice for 15 minutes. The labeled cells were analyzed using the FACSCalibur (Becton Dickinson).
(§2) The effect of F16 (3 μM) on BrdU incorporation into DNA of various Neu-induced, Ras-induced and Myc-induced tumor cells lines was examined using the same technique. The results, which are shown in Table 3, indicate that, except for 16MB9a, a myc tumor cell line that is not affected by F16, the other cell lines, all of which are sensitive to F16 show, as expected, a decrease in the percentage of cells in the S phase and an increase in the percentage of cells in G1 after 30 hr of incubation in medium containing F16 (3 μM). In some cases, an increase in the amount of cells in G2 phase was observed. This may reflect the heterogeneity of the tumor cells, some of which may have acquired defects in various cell cycle regulators as secondary events.

[4] = test system: n-Neu; assay: cell cycle phases by BrdU incorporation / FACS; type: cell-based, mouse; conditions: F16 3 μM, 30 hr
Procedure: as §1, §2

[5] = test system: SH1.1; assay: cell cycle phases by BrdU incorporation / FACS; type: cell-based, mouse; conditions: F16 3 μM, 30 hr
Procedure: as §1, §2

[6] = test system: AC816; assay: cell cycle phases by BrdU incorporation / FACS; type: cell-based, mouse; conditions: F16 3 μM, 30 hr
Procedure: as §1, §2

[7] = test system: NAF; assay: cell cycle phases by BrdU incorporation / FACS; type: cell-based, mouse; conditions: F16 3 μM, 30 hr
Procedure: as §1, §2

[8] = test system: Myc (16MB9a, a myc tumor cell line); assay: cell cycle phases by BrdU incorporation / FACS; type: cell-based, mouse; conditions: Myc tumor cell line (16MB9a); F16 3 μM, 30 hr
Procedure: as §1, §2

**Q.** `C[n+]1ccc(/C=C/c2c[nH]c3ccccc23)cc1.[I-]` [F16] was tested. Which “score in anti-BrdU cytoblot” value ([1]; EpH4-A6 cells at 10 μM) did it give?
**A.** positive

**Q.** And the “concentration up to which anti-proliferative activity is retained” value ([1]; EpH4-A6 cells, concentrations from 100 to 0.01 μM, FIG. 3)?
**A.** 100 nM

**Q.** And the “concentration at which F16 is effective / partially inhibits BrdU incorporation (as low as)” value ([1]; EpH4-A6 cells, cytoblot)?
**A.** 10 nM

**Q.** What about the “concentration at which anti-proliferative activity was shown (as low as)” value ([1]; EpH4-A6 cells, cytoblot) of the same compound?
**A.** 1 µM

**Q.** And the deaths after injection ([2]; 50 mg/kg, a few hours after the injection)?
**A.** one mouse out of 5

**Q.** And the “maximum tolerable dose (MTD)” value ([2]; intraperitoneal injection, mice)?
**A.** ~50 mg/kg

**Q.** And the “With F16 % G1” value [3]?
**A.** 68.6% and 69.6%

**Q.** And the “With F16 % G2” value [3]?
**A.** 12.4% and 8.9%

**Q.** And the “With F16 % S” value [3]?
**A.** 17.3% and 17.0%

**Q.** What about the “With F16 % G1” value [4] of the same compound?
**A.** 64.5% and 61.5%

**Q.** And the “With F16 % G2” value [4]?
**A.** 15.4% and 17.8%

**Q.** And the “With F16 % S” value [4]?
**A.** 18.2% and 19.6%

**Q.** What about the “With F16 % G1” value [5] of the same compound?
**A.** 81.3% and 79.7%

**Q.** And the “With F16 % G2” value [5]?
**A.** 10.4% and 13.2%

**Q.** What about the “With F16 % S” value [5] of the same compound?
**A.** 7.1%

**Q.** And the “With F16 % G1” value [6]?
**A.** 96.8% and 95.1%

**Q.** What about the “With F16 % G2” value [6] of the same compound?
**A.** 2.7% and 2.8%

**Q.** What about the “With F16 % S” value [6] of the same compound?
**A.** 0.1% and 0.2%

**Q.** What about the “With F16 % G1” value [7] of the same compound?
**A.** 86.8%

**Q.** What about the “With F16 % G2” value [7] of the same compound?
**A.** 3.6%

**Q.** What about the “With F16 % S” value [7] of the same compound?
**A.** 4.7%

**Q.** And the “With F16 % G1” value [8]?
**A.** 82.7% and 83.8%

**Q.** What about the “With F16 % G2” value [8] of the same compound?
**A.** 1.5%

**Q.** What about the “With F16 % S” value [8] of the same compound?
**A.** 12.8% and 12.7%
